# In US20230099822A1, “MR1 LIGANDS AND PHARMACEUTICAL COMPOSITIONS FOR IMMUNOMODULATION” (UNIVERSITÄT BASEL, priority 2020, published 2023):
# Experiments:
# [1] = molecular target: T1, MR1 surface expression on THP-1 MR1 cells (Homo sapiens, UniProt Q95460); assay: Cell surface MR1 modulation on APCs (flow cytometry, anti-MR1 mAb 26.5); format: cell-based; conditions: for MRI downmodulation / MRI upregulation: THP-1 MR1 cells, 3 h at 37° C., 3 doses each
# T1 construct: expressed in transfected cells; host or cells: THP-1 (ATCC TIB-202) stably expressing MR1 (THP1-MR1)
# Description: […] […] For each condition, net MFI was calculated subtracting isotype MFI from anti-MR1 MFI and fold change of cells treated with synthetic molecules over cells treated with vehicle was calculated.
# [2] = test system: MR1T cell clones; assay: Competition assay for stimulation of MR1T cell clones; format: cell-based, human; conditions: APCs with compound 2 h (3 doses), then antigen at optimal concentration, cytokine ELISA
# Description: As positive control for competition with antigens, Ac-6-FP was used (100 μM). Supernatants were collected after 24 h for cytokine analysis measured by ELISA.
# [3] = test system: MR1T cell clones; assay: MR1T cell activation assay with THP-1 cells incubated with compounds (cytokine ELISA); format: cell-based, human; conditions: for activation of MR1T clone MCA3C3 (IFN-γ): THP-1 cells pre-incubated with 250 μM of molecule (FIG. 8G, right); for activation of MR1T clone DGB129 (IFN-γ): THP-1 cells pre-incubated with 250 μM of molecule (FIG. 8G, middle); for number of MR1T clones significantly stimulated: fourteen randomly selected MR1T clones, THP-1 cells, IFN-γ (FIG. 12B)
# Description: MR1T cells (5×10^4/well unless otherwise indicated) were co-cultured with the indicated APCs (10^5 cells per well unless otherwise indicated) for 18 h in 120 μL volume in triplicate.
# When nucleobases, nucleosides or nucleotides (all 250 μM) and synthetic compounds M3ADE, OPdA, M1G or OPdC were used to stimulate T cells, the THP-1 cells (10^5/well) were cultured 2 h with the indicated molecules or medium only, prior to T-cell addition. When a single concentration of synthetic antigens was used, 100 μM OPdA, 100 μM OPdC and 13 μM M1G were used for all clones, while 100 μM M3ADE was used for all clones except DGB129, AC1A4, AC1B76 and AVA46 for which 1 μM was used.
# T1 sequence (Q95460 23-341): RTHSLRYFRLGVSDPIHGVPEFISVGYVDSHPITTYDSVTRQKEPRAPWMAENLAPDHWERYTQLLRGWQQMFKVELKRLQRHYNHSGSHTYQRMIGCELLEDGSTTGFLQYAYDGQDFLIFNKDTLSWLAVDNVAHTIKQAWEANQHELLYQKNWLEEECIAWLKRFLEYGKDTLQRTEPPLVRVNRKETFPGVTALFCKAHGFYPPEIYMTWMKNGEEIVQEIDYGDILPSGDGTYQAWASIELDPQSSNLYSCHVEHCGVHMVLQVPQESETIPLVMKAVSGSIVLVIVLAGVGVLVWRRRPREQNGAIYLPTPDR
# T1 sequence (P61769 21-119 partner): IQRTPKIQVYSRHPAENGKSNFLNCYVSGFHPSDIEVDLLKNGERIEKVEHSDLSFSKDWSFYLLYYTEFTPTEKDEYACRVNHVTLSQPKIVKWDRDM
smiles,measurement,setting,value
"Cc1ncnc2nc[nH]c12 [Cmpd 43, 6-Methylpurine]",MRI downmodulation,[1],YES
same,Competition,[2],YES
"CO[C@@H]1[C@H](O)[C@@H](CO)O[C@H]1n1cnc2c(=O)[nH]c(N)nc21 [Cmpd 18, 2′-O-methylguanosine]",MRI upregulation,[1],YES
same,Competition,[2],YES
"CSc1nc(NC/C=C(\C)CO)c2ncn([C@@H]3O[C@H](CO)C(O)C3O)c2n1 (stereo partly drawn) [Cmpd 8, 2-methylthio-N6-(cis-hydroxyisopent-2-enyl) adenosine]",MRI upregulation,[1],YES
same,Reactive T cells isolated,[3],YES
"Nc1ncnc2c1ncn2[C@@H]1O[C@H](COP(=O)(O)OP(=O)(O)O)[C@@H](O)[C@H]1O [ADP, reference compound]",activation of MR1T clone MCA3C3 (IFN-γ),[3],activated
"CNc1ncnc2c1ncn2[C@H]1C[C@H](O)[C@@H](CO)O1 [Cmpd 53, N6-Methyl-2′-deoxyadenosine]",Reactive T cells isolated,[3],YES
"Cn1c(N)nc2c(ncn2[C@@H]2O[C@H](CO)[C@@H](O)[C@H]2O)c1=O [Cmpd 15, 1-methylguanosine]",Competition,[2],YES
same,Reactive T cells isolated,[3],YES
"Nc1nc2c(ncn2[C@@H]2O[C@H](CO)[C@@H](O)[C@H]2O)c(=O)[nH]1 [guanosine, reference compound]",activation of MR1T clone MCA3C3 (IFN-γ),[3],activated
"Nc1ncnc2c1ncn2[C@@H]1O[C@H](CO)[C@@H](O)[C@H]1O [adenosine, reference compound]",activation of MR1T clone DGB129 (IFN-γ),[3],reacted
"O=C/C=C/Nc1ncnc2c1ncn2[C@H]1C[C@H](O)[C@@H](CO)O1 [Cmpd 12, N6-(3-oxo-1-propenyl)-2′-deoxyadenosine]",activation of MR1T clone AC1A4 by adduct,[3],activated
same,activation of MR1T clone TC5A87 by adduct,[3],activated
same,stimulation of MR1T clone QY1A16 by adduct,[3],stimulated
same,number of MR1T clones significantly stimulated,[3],eight
"O=C/C=C/Nc1ncnc2c1ncn2[C@H]1C[C@H](O)[C@@H](CO)O1 (stereo in doubt) [Cmpd 12, N6-(3-oxo-1-propenyl)-2′-deoxyadenosine]",MRI upregulation,[1],YES
same,Reactive T cells isolated,[3],YES
"CN(C)c1ncnc2c1ncn2[C@@H]1O[C@H](CO)[C@@H](O)[C@H]1O [Cmpd 4, N6,N6-dimethyladenosine]",MRI upregulation,[1],YES
same,Reactive T cells isolated,[3],YES
same,compound-specific MR1T cell activation (IFN-γ),"[3]; clones DGB129, MCA2E7 and TC5A87, THP-1 cells, overnight (FIG. 3)",activation
"OC[C@H]1O[C@@H](n2cnc3c(O)ncnc32)[C@H](O)[C@@H]1O [inosine, reference compound]",activation of MR1T clone DGB129 (IFN-γ),[3],reacted
"CN(C)c1ncnc2c1ncn2[C@@H]1O[C@H](CO)[C@@H](O)[C@H]1O [N6,N6-dimethyladenosine]",cell surface MR1 upregulation on APCs (in words),[1]; pulsed APC / THP1-MR1 cells,upregulation
"CSc1nc(NCC=C(C)C)c2ncn([C@@H]3O[C@H](CO)[C@@H](O)[C@H]3O)c2n1 [Cmpd 9, 2-methylthio-N6-isopent-2-enyladenosine]",Competition,[2],YES
"O=C/C=C/Nc1ccn([C@H]2C[C@H](O)[C@@H](CO)O2)c(=O)n1 [Cmpd 38, N4-(3-oxo-1-propenyl)-2′-deoxycytidine]",MRI upregulation,[1],YES
"CC(C)=CCNc1ncnc2[nH]cnc12 [Cmpd 45, N6-(Δ2-Isopent-2-enyl) adenine]",MRI downmodulation,[1],YES
same,Competition,[2],YES
"CN(C)c1ncnc2nc[nH]c12 [Cmpd 44, 6-(Dimethylamino)purine]",MRI upregulation,[1],YES
same,Competition,[2],YES
"OCCNc1ncnc2c1ncn2[C@H]1C[C@H](O)[C@@H](CO)O1 [Cmpd 54, N6-(2-Hydroxyethyl)-2′-deoxyadenosine]",Reactive T cells isolated,[3],YES
"CCCCCC(=O)Cc1cnc2c3ncn([C@H]4C[C@H](O)[C@@H](CO)O4)c3ncn12 [Cmpd 14, 1-(3-((2R,4S,5R)-4-hydroxy-5-(hydroxymethyl)tetrahydrofuran-2-yl)-3H-imidazo[2,1-i]purin-7-yl)heptan-2-one]",MRI upregulation,[1],YES
"CO[C@@H]1[C@H](O)[C@@H](CO)O[C@H]1n1ccc(=O)n(C)c1=O [Cmpd 32, 3,2′-O-dimethyluridine]",MRI upregulation,[1],YES
same,Competition,[2],YES
"Nc1nc2c(c(CN[C@H]3C=C[C@H](O)[C@@H]3O)cn2[C@@H]2O[C@H](CO)[C@@H](O)[C@H]2O)c(=O)[nH]1 [Cmpd 33, Queuosine]",MRI upregulation,[1],YES
same,Competition,[2],YES
"Cn1c(N)nc2[nH]cnc2c1=O [Cmpd 47, 1-Methylguanine]",MRI downmodulation,[1],YES
"CNc1nc2c(ncn2[C@@H]2O[C@H](CO)[C@@H](O)[C@H]2O)c(=O)[nH]1 [Cmpd 16, N2-methylguanosine]",MRI upregulation,[1],YES
"O=C/C=C/Nc1ccn([C@H]2C[C@H](O)[C@@H](CO)O2)c(=O)n1 (stereo in doubt) [Cmpd 38, N4-(3-oxo-1-propenyl)-2′-deoxycytidine]",activation of MR1T clone TC5A87 by adduct,[3],activated
same,stimulation of MR1T clone QY1A16 by adduct,[3],stimulated
same,number of MR1T clones significantly stimulated,[3],three
"Nc1ncnc2c1ncn2[C@H]1C[C@H](O)[C@@H](CO)O1 [deoxyadenosine, reference compound]",activation of MR1T clone DGB129 (IFN-γ),[3],reacted
same,MR1T reactivity using GLO1-deficient THP-1 cells as APCs,"[3]; clone DGB129, deoxyadenosine (FIG. 9K)",increased
same,MR1T reactivity using GLO1-overexpressing THP-1 cells,"[3]; clone DGB129, deoxyadenosine (FIG. 9L)",decreased
"CC(=O)C=O [MG, methylglyoxal, reference compound]",MR1T-cell stimulation by GLO1-deficient compared to wild-type THP-1 cells,"[3]; clone DGB129, Methylglyoxal (FIG. 9I)",significantly increased
same,MR1T-cell stimulation with GLO1-overexpressing THP-1 cells,"[3]; clone DGB129, Methylglyoxal (FIG. 9J)",failed to induce
"C/C(=C\CNc1ncnc2c1ncn2[C@@H]1O[C@H](CO)C(O)C1O)CO (stereo partly drawn) [Cmpd 7, N6-(cis-hydroxyisopent-2-enyl) adenosine]",Competition,[2],YES
"Nc1nc2c(ncn2[C@H]2C[C@H](O)[C@@H](CO)O2)c(=O)[nH]1 [deoxyguanosine, reference compound]",activation of MR1T clone MCA3C3 (IFN-γ),[3],activated
"CCCCCC(=O)Cc1c[nH]c2nc3c(ncn3[C@H]3C[C@H](O)[C@@H](CO)O3)c(=O)n12 [Cmpd 25, 3-((2R,5R)-4-hydroxy-5-(hydroxymethyl)tetrahydrofuran-2-yl)-7-(2-oxoheptyl)-3H-imidazo[1,2-a]purin-9(5H)-one]",MRI upregulation,[1],YES
"CO[C@@H]1[C@H](O)[C@@H](CO)O[C@H]1n1cnc2c(N)ncnc21 [Cmpd 3, 2′-O-methyladenosine]",MRI upregulation,[1],YES
same,Reactive T cells isolated,[3],YES
"O=c1c2nc[nH]c2nc2ncccn12 [Cmpd 24, pyrimido(1,2-a)purin-10(1H)-one]",MRI upregulation,[1],YES
same,Reactive T cells isolated,[3],YES
same,activation of MR1T clone AC1A4 by adduct,[3],activated
same,response to THP-1 cells when adduct added,"[3]; M1G or M3ADE added to clones QY1A16 and QY1C3, respectively",significant decreased response
same,number of MR1T clones significantly stimulated,[3],three
"Nc1ncnc2nc[nH]c12 [adenine, reference compound]",activation of MR1T clone DGB129 (IFN-γ),[3],reacted
"Nc1nc2nc[nH]c2c(=O)[nH]1 [guanine, reference compound]",activation of MR1T clone MCA3C3 (IFN-γ),[3],activated
"CNc1nc2c(ncn2[C@H]2C[C@H](O)[C@@H](CO)O2)c(=O)[nH]1 [Cmpd 48, N2-Methyl-2′-deoxyguanosine]",MRI upregulation,[1],YES
"C[n+]1cn([C@@H]2O[C@H](CO)[C@@H](O)[C@H]2O)c2nc(N)[nH]c(=O)c21 [Cmpd 17, 7-methylguanosine]",Competition,[2],YES
same,Reactive T cells isolated,[3],YES
"CSc1ncnc2c1ncn2[C@@H]1O[C@H](CO)[C@@H](O)[C@H]1O [Cmpd 40, (2R,3S,4R,5R)-2-(hydroxymethyl)-5-(6-(methylthio)-9H-purin-9-yl)tetrahydrofuran-3,4-diol]",MRI upregulation,[1],YES
same,Reactive T cells isolated,[3],YES
"O=c1[nH]c(=O)c2ncn([C@@H]3O[C@H](CO)[C@@H](O)[C@H]3O)c2[nH]1 [xanthosine, reference compound]",activation of MR1T clone MCA3C3 (IFN-γ),[3],activated
"CSC[C@H]1O[C@@H](n2cnc3c(N)ncnc32)[C@H](O)[C@@H]1O [Cmpd 52, 5′-Deoxy-5′-(methylthio)adenosine]",Competition,[2],YES
